From patent US20100144626A1, “Treatment of Multi-Drug Resistant Bacterial Infections” (priority 2006, published 2010)
≈ marks a conversion by molar mass, not a printed value. Entries after “also recorded” stand apart in the source; their conditions may differ. Like-named read-outs stand apart in the source and are kept apart here.

Tests used:
Type in all cases: cell-based
Gram-negative organisms = assay: Growth inhibition, summary of MIC testing; conditions: summary in words
Procedure: (§1) In example experiments miconazole nitrate, was dissolved in methanol and econazole nitrate and clotrimazole were dissolved in DMSO and methanol respectively. Other solvents that may be used include caster oil, pyridine, DMSO and 0.9% saline. For IV administration agents may be solubilised in polyethoxylated caster oil, or cyclodextrins such as sulfobutylether7-βcyclodextrin or hydroxypropyl-β-cyclodextrin and lactic acid. Minimum inhibitory concentrations (MICs) of a range of clinical and control bacterial organisms were measured according to BSAC (British Society for Antimicrobial Chemotherapy) guidelines, described briefly as follows;
(§2) Stock solutions were prepared at concentrations of 1000 mg/L and 100 mg/L. The appropriate amounts of each stock solution were added to separate Petri dishes give the following final concentrations (after the addition of 20 mL molten agar): 128, 64, 32, 16, 8, 4, 2, 1, 0.5, 0.25, 0.12, 0.06, 0.03, 0.015 mg/L.
(§3) The test organisms were grown overnight in 5 mL IST broth. Using a dilution in 0.9% saline of 1:500 for Gram-negative organisms and 1:100 for Gram-positive organisms, the appropriate agar plates were inoculated using a multipoint inoculator.
(§4) Plates were incubated at 37° C. in air for 18-20 hours.
(§5) The MIC is the minimum amount of an antibiotic at which there is no visible growth of bacteria. Tiny single colonies or faint hazes were not counted as growth.

[1] = test system: strains of Staphylococci and Enterococci with reduced susceptibility to vancomycin; assay: Growth inhibition, summary of MIC testing; conditions: summary in words
Procedure: as §1, §2, §3, §4, §5

[2] = test system: Escherichia coli NCTC 10418; assay: MIC, agar dilution (BSAC guidelines)
Procedure: as §1
(§6) Preparation of Agar Plates and Broths
(§7) Stock solutions of each agent were prepared using the formula:
(§8) Where P=μg of active compound per mg (μg/mg) • V=volume required (mL) • C=final concentration of solution (mg/L) • W=weight of agent (mg) to be dissolved in volume V (mL)
as §2
(§9) Volumes (20 mL) of cooled molten IST agar (oxoid) was added to each Petri dish and mixed by swirling.
(§10) After drying, the plates were stored at 4° C. and protected from light. Plates were used on the day of preparation.
as §3, §4, §5

[3] = test system: VISA, strain USA/VISA 5827; assay: MIC, agar dilution (BSAC guidelines); conditions: Staphylococcus aureus
Procedure: as §1, §6, §7, §8, §2, §9, §10, §3, §4, §5

[4] = test system: Enterococcus faecium (VRE) E19 UAA/522 VanB; assay: MIC, agar dilution (BSAC guidelines); conditions: E. faecium (VRE) E19 UAA/522 VanB
Procedure: as §1, §6, §7, §8, §2, §9, §10, §3, §4, §5

[5] = test system: Enterococcus faecium (VRE) E15 VanA ATCC 4147; assay: MIC, agar dilution (BSAC guidelines)
Procedure: as §1, §6, §7, §8, §2, §9, §10, §3, §4, §5

[6] = test system: Pseudomonas aeruginosa NCTC 10662; assay: MIC, agar dilution (BSAC guidelines)
Procedure: as §1, §6, §7, §8, §2, §9, §10, §3, §4, §5

[7] = test system: Enterococcus faecium (VRE) NCTC 7171; assay: MIC, agar dilution (BSAC guidelines)
Procedure: as §1, §6, §7, §8, §2, §9, §10, §3, §4, §5

[8] = test system: Enterococcus faecium (VRE) VanR B145344C LFE; assay: MIC, agar dilution (BSAC guidelines); conditions: E. faecium (VRE) VanR B145344C LFE
Procedure: as §1, §6, §7, §8, §2, §9, §10, §3, §4, §5

[9] = test system: Acinetobacter Baumannii ATCC 19606; assay: MIC, agar dilution (BSAC guidelines)
Procedure: as §1, §6, §7, §8, §2, §9, §10, §3, §4, §5

[10] = test system: VISA, strain VISA 3900 UK; assay: MIC, agar dilution (BSAC guidelines); conditions: Staphylococcus aureus
Procedure: as §1, §6, §7, §8, §2, §9, §10, §3, §4, §5

[11] = test system: VISA, strain USA/VISA 5836; assay: MIC, agar dilution (BSAC guidelines); conditions: Staphylococcus aureus
Procedure: as §1, §6, §7, §8, §2, §9, §10, §3, §4, §5

[12] = test system: Enterococcus gallinarum (VRE) E1 NCTC 12359 VanC1; assay: MIC, agar dilution (BSAC guidelines)
Procedure: as §1, §6, §7, §8, §2, §9, §10, §3, §4, §5

[13] = test system: Staphylococcus epidermidis ATCC 1228; assay: MIC, agar dilution (BSAC guidelines)
Procedure: as §1, §6, §7, §8, §2, §9, §10, §3, §4, §5

[14] = test system: Klebsiella pneumoniae ESBL 700603; assay: MIC, agar dilution (BSAC guidelines)
Procedure: as §1, §6, §7, §8, §2, §9, §10, §3, §4, §5

[15] = test system: Enterococcus faecalis (VRE) E8 VanA; assay: MIC, agar dilution (BSAC guidelines); conditions: E. faecalis (VRE) E8 VanA
Procedure: as §1, §6, §7, §8, §2, §9, §10, §3, §4, §5

[16] = replicate 1, read-out: Minimum inhibitory concentration (MIC)
[17] = replicate 2, read-out: Minimum inhibitory concentration (MIC)
[18] = replicate 3, read-out: Minimum inhibitory concentration (MIC)

Clc1ccccc1C(c1ccccc1)(c1ccccc1)n1ccnc1 [Clotrimazole, 1-[(2-chlorophenyl)diphenylmethyl]-1H-imidazole]
activity against Gram-negative organisms (Gram-negative organisms): no significant activity
activity against strains of Staphylococci and Enterococci with reduced susceptibility to vancomycin [1]: good activity; also recorded: capable of inhibiting the growth
MIC ([2]; NCTC10418, E. coli NCTC 10418, replicate 1, read-out: Minimum inhibitory concentration (MIC)): > 10 µg/mL
MIC ([2]; NCTC10418, E. coli NCTC 10418, replicate 2, read-out: Minimum inhibitory concentration (MIC)): > 6 µg/mL
MIC ([2]; NCTC10418, E. coli NCTC 10418, replicate 3, read-out: Minimum inhibitory concentration (MIC)): > 6 µg/mL
MIC [3, 16]: 1.5 µg/mL (≈ 4.35 µM)
MIC [3, 17]: 3.5 µg/mL (≈ 10.1 µM)
MIC [3, 18]: 3 µg/mL (≈ 8.7 µM)
MIC [4, 16]: 1.5 µg/mL (≈ 4.35 µM)
MIC [4, 17]: 3.5 µg/mL (≈ 10.1 µM)
MIC [4, 18]: 3.5 µg/mL (≈ 10.1 µM)
MIC ([5]; E. faecium (VRE) E15 VanA ATCC 4147, replicate 1, read-out: Minimum inhibitory concentration (MIC)): 2.5 µg/mL (≈ 7.25 µM)
MIC ([5]; E. faecium (VRE) E15 VanA ATCC 4147, replicate 2, read-out: Minimum inhibitory concentration (MIC)): 4 µg/mL (≈ 11.6 µM)
MIC ([5]; E. faecium (VRE) E15 VanA ATCC 4147, replicate 3, read-out: Minimum inhibitory concentration (MIC)): 4.5 µg/mL (≈ 13 µM)
MIC ([6]; NCTC10662, P. aeruginosa NCTC 10662, replicate 1, read-out: Minimum inhibitory concentration (MIC)): > 10 µg/mL
MIC ([6]; NCTC10662, P. aeruginosa NCTC 10662, replicate 2, read-out: Minimum inhibitory concentration (MIC)): > 6 µg/mL
MIC ([6]; NCTC10662, P. aeruginosa NCTC 10662, replicate 3, read-out: Minimum inhibitory concentration (MIC)): > 6 µg/mL
MIC ([7]; E. faecium (VRE) NCTC 7171, replicate 1, read-out: Minimum inhibitory concentration (MIC)): 4 µg/mL (≈ 11.6 µM)
MIC ([7]; E. faecium (VRE) NCTC 7171, replicate 2, read-out: Minimum inhibitory concentration (MIC)): 6 µg/mL (≈ 17.4 µM)
MIC ([7]; E. faecium (VRE) NCTC 7171, replicate 3, read-out: Minimum inhibitory concentration (MIC)): > 6 µg/mL
MIC [8, 16]: 3 µg/mL (≈ 8.7 µM)
MIC [8, 17]: 4.5 µg/mL (≈ 13 µM)
MIC [8, 18]: 5 µg/mL (≈ 14.5 µM)
MIC ([9]; ATCC19606, Acinetobacter Baumannii ATCC 19606, replicate 1, read-out: Minimum inhibitory concentration (MIC)): > 10 µg/mL
MIC ([9]; ATCC19606, Acinetobacter Baumannii ATCC 19606, replicate 2, read-out: Minimum inhibitory concentration (MIC)): > 6 µg/mL
MIC ([9]; ATCC19606, Acinetobacter Baumannii ATCC 19606, replicate 3, read-out: Minimum inhibitory concentration (MIC)): > 6 µg/mL
MIC [10, 16]: 1.5 µg/mL (≈ 4.35 µM)
MIC [10, 17]: 2.5 µg/mL (≈ 7.25 µM)
MIC [10, 18]: 2.5 µg/mL (≈ 7.25 µM)
MIC [11, 16]: 1.5 µg/mL (≈ 4.35 µM)
MIC [11, 17]: 3 µg/mL (≈ 8.7 µM)
MIC [11, 18]: 2.5 µg/mL (≈ 7.25 µM)
MIC ([12]; E. gallinarum (VRE) E1 NCTC 12359 VanC1, replicate 1, read-out: Minimum inhibitory concentration (MIC)): 4 µg/mL (≈ 11.6 µM)
MIC ([12]; E. gallinarum (VRE) E1 NCTC 12359 VanC1, replicate 2, read-out: Minimum inhibitory concentration (MIC)): 6 µg/mL (≈ 17.4 µM)
MIC ([12]; E. gallinarum (VRE) E1 NCTC 12359 VanC1, replicate 3, read-out: Minimum inhibitory concentration (MIC)): > 6 µg/mL
MIC ([13]; ATCC1228, S. epidermidis ATCC 1228, replicate 1, read-out: Minimum inhibitory concentration (MIC)): 3 µg/mL (≈ 8.7 µM)
MIC ([13]; ATCC1228, S. epidermidis ATCC 1228, replicate 2, read-out: Minimum inhibitory concentration (MIC)): 3 µg/mL (≈ 8.7 µM)
MIC ([13]; ATCC1228, S. epidermidis ATCC 1228, replicate 3, read-out: Minimum inhibitory concentration (MIC)): 2.5 µg/mL (≈ 7.25 µM)
MIC ([14]; ESBL700603, K. pneumoniae ESBL 700603, replicate 1, read-out: Minimum inhibitory concentration (MIC)): > 10 µg/mL
MIC ([14]; ESBL700603, K. pneumoniae ESBL 700603, replicate 2, read-out: Minimum inhibitory concentration (MIC)): > 6 µg/mL
MIC ([14]; ESBL700603, K. pneumoniae ESBL 700603, replicate 3, read-out: Minimum inhibitory concentration (MIC)): > 6 µg/mL
MIC [15, 16]: 6.5 µg/mL (≈ 18.8 µM)
MIC [15, 17]: > 6 µg/mL
MIC [15, 18]: > 6 µg/mL
